# In article PMC10970734, “Identification of an Intravenous Injectable NK1 Receptor Antagonist for Use in Traumatic Brain Injury” (International Journal of Molecular Sciences, 2024):
# Entries after “also recorded” stand apart in the source; their conditions may differ.
# Columns and labels:
# [1] = biological target: T1, recombinant human NK3 receptor (Homo sapiens, UniProt P29371); assay: Radioligand binding, recombinant human NK3 receptor
# T1 sequence (P29371 1-465): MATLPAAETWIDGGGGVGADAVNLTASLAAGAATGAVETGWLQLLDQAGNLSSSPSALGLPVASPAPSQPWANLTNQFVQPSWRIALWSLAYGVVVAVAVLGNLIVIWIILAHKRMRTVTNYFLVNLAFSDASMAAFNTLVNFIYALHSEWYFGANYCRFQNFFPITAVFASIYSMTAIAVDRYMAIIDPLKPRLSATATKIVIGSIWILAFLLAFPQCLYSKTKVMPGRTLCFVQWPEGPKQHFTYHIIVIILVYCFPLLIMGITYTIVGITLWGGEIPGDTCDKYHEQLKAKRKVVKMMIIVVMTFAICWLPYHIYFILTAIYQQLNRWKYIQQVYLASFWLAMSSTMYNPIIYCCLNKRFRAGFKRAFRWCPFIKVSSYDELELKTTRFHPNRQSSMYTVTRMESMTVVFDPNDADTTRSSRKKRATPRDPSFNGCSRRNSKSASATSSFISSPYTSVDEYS
# rodent model of TBI = assay: BBB permeability after TBI, Evan's blue extravasation; assay type: in vivo, Sprague Dawley rats; conditions: rat TBI
# Description: Injury was induced in halothane-anesthetized (ProVet) male Sprague Dawley rats (400 ± 20 g) using acceleration-induced impact TBI [29, 93]. This model involves impacting a 10 mm diameter, 3 mm thick stainless steel disc fixed centrally to the exposed skull between the lambda and bregma with an accelerating impactor. The impactor was a 450 g brass weight dropped from a height of 2 m. […] All animals were fed and watered ad libitum before the induction of injury. During both surgery and the immediate recovery phase, rat rectal temperature was maintained using a thermostatically controlled heating pad. Immediately after injury, animals were manually ventilated until stable respiration was restored, usually in <5 min. After injury, all wounds were sutured. Blood pressure was monitored, both before and after injury, using a femoral arterial line.
# The optimal dose of the NK1 receptor antagonist was determined from the level of BBB permeability using EB dye extravasation as the BBB marker [94, 95]. Briefly, EUC-001 was administered intravenously 30 min after TBI at doses ranging between 0.03 and 10 mg/kg in six steps (n = 3 per group). […] The supernatants were measured at 610 nm for absorbance of EB using a spectrophotometer (Cole-Parmer, Vernon Hills, IL, USA). Evans blue is expressed as mg/mg of the brain tissue against a standard curve.
# NK1R [2] = biological target: T2, NK1R (Homo sapiens, UniProt P25103); assay: Radioligand binding, competition for [3H]SP, CHO cells transfected with human NK1R; set-up: expressed in transfected cells; host or cells: CHO cells (ATCC); conditions: competition for [3H]SP binding (0.6 nM)
# T2 sequence (P25103 whole entry): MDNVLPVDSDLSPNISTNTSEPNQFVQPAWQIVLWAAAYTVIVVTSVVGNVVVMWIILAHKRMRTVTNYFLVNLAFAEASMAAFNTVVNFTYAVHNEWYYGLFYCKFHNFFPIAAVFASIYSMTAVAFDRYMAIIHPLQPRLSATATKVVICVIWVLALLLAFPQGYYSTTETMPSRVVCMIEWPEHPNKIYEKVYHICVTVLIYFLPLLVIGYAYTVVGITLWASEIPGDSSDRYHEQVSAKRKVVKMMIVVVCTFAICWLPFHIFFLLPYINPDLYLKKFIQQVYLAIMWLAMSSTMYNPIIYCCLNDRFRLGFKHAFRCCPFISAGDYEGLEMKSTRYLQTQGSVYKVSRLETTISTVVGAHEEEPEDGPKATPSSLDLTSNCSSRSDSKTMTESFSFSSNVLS
# Procedure: The affinity of EUC-001 for the human NK1R was assessed by radioligand binding assays using Chinese hamster ovary (CHO) cells transfected with the human NK1R. Radioligand binding studies, evaluating competition for [^3H]
# Radioligand binding assays were performed using CHO cells (ATCC, Middlesex, UK) transfected with the human NK1R (accession number NM_001058). Assays were performed in 50 mM HEPES buffer (pH 7.4; Sigma-Aldrich, St Louis, MO, USA) containing BSA (0.04%; Sigma-Aldrich, St Louis, MO, USA), leupeptin (8 μg/mL; Sigma-Aldrich, St Louis, MO, USA), MnCl2 (3 mM; Sigma-Aldrich, St Louis, MO, USA) and phosphoramidon (2 μM; Sigma-Aldrich, St Louis, MO, USA). In total, 250 μL of membrane suspension was incubated with 125 μL of unlabelled EUC-001 (synthesized by Hoffmann-La Roche, Basel, Switzerland) dissolved in assay buffer, and 125 μL of [^3H]SP (final concentration 0.6 nM; Amersham Biosciences, Amersham, UK). Displacement curves were determined with seven concentrations of EUC-001. Following incubation (60 min at room temperature), the mixture was rapidly filtered through pre-soaked Whatman GF/C filters (Sigma-Aldrich, St Louis, MO, USA) and washed with 2 × 2 mL HEPES buffer (Sigma-Aldrich, St Louis, MO, USA), and bound radioactivity was measured by scintillation counting (Beckman Coulter, Brea, CA, USA). Assays were performed in triplicate in 2 separate experiments.
# NK1R [3] = biological target: T2, NK1R; assay: In vitro functional assay, free Ca2+ concentration in U373MG cells endogenously expressing NK1R; assay type: cell-based; set-up: which endogenously express the NK1R; endogenous in cells; host or cells: U373MG human glioblastoma astrocytoma cells (ATCC)
# Procedure: In vitro functional assays were performed by assessing changes in free Ca^2+ ion concentration in human glioblastoma (U373MG) cells, which endogenously express the NK1R. Agonist activity of EUC-001 is expressed as a percentage of the agonist response induced by the selective NK1R agonist [Sar^9, Met(O2)^11]-substance P (100 nM; Figure 2A), whilst antagonist activity is expressed as a percentage change in the response induced by 3 nM [Sar^9, Met(O2)^11]-SP (Figure 2B).
# Human glioblastoma astrocytoma (U373MG) cells (ATCC) were used for in vitro function studies involving intracellular calcium measurements. […] Intracellular calcium concentrations were determined by using the calcium chelating agent fura-2 (Molecular Probes, Waltham, MA, USA). Aliquots of fura-2-loaded cells were subject to agonist stimulation and fluorescence emission was recorded using an MS-5 spectrophotometer (Perkin Elmer, Shelton, CT, USA). Loading of cells, fluorescence monitoring, calibration procedures, and other experimental details were as previously described.
# For agonist activity, results are expressed as a percentage of the control agonist response induced by the selective NK1R agonist [Sar^9, Met(O2)^11]-substance P (100 nM) for a range of concentrations of EUC-001. […]
compound,measurement,setting,value
"Cc1ccccc1-c1cc(N2CCN(C)CC2)ncc1C(=O)N(C)Cc1cc(C(F)(F)F)cc(C(F)(F)F)c1 [EUC-001, N-(3,5-Bis-trifluoromethyl-benzyl)-N-methyl-6-(4-methyl-piperazine-1-yl)-4-o-tolyl-nicotinamide]",Ki,[1],17 µM
same,Evan's blue leakage relative to drug vehicle,"rodent model of TBI; 10 mg/kg 30 min post-injury, tissues 5 h after injury",significant reduction
same,"IC50, decrease in Evan's blue extravasation","rodent model of TBI; bolus iv 30 min after injury, 0.03-10 mg/kg",0.43 mg/kg
same,Ki,NK1R [2],0.575 nM
same,"Agonist activity, percentage of response to 100 nM [Sar9, Met(O2)11]-substance P",NK1R [3],did not exhibit any detectable agonist activity; also recorded: no agonist activity
same,IC50,"NK1R [3]; 3 nM [Sar9, Met(O2)11]-SP, read-out: IC50, inhibition of [Sar9, Met(O2)11]-SP-mediated response",0.69 nM
